Experiments:
Experiment in all cases: relative viability (nuclei count vs DMSO), 5 days (fraction); higher = more cells survive
AZD5582 + Bortezomib = compound: C[C@@H](C(=O)N[C@@H](C1CCCCC1)C(=O)N2CCC[C@H]2C(=O)N[C@@H]3[C@@H](CC4=CC=CC=C34)OCC#CC#CCO[C@@H]5CC6=CC=CC=C6[C@@H]5NC(=O)[C@@H]7CCCN7C(=O)[C@H](C8CCCCC8)NC(=O)[C@H](C)NC)NC [AZD5582] + CC(C)C[C@H](NC(=O)[C@H](Cc1ccccc1)NC(=O)c1cnccn1)B(O)O [Bortezomib] (partner 0.002 µM)
In short: (§1)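 Lung cancer cell lines in 1536-well plates were dosed by pin tool the day after seeding, either with one drug alone or with a fixed anchor-drug dose plus five library-drug doses (not always all listed) in √10 steps. After 5 days, cells were fixed and their nuclei stained in one step (final 0.05% Triton X-100, 1% formaldehyde, 1 ug/ml Hoechst), then counted on 4× images. Relative viability is the nuclei count in treated wells divided by that in vehicle wells. Values are medians of duplicate plates.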

AZD5582 + Crizotinib = compound: C[C@@H](C(=O)N[C@@H](C1CCCCC1)C(=O)N2CCC[C@H]2C(=O)N[C@@H]3[C@@H](CC4=CC=CC=C34)OCC#CC#CCO[C@@H]5CC6=CC=CC=C6[C@@H]5NC(=O)[C@@H]7CCCN7C(=O)[C@H](C8CCCCC8)NC(=O)[C@H](C)NC)NC [AZD5582] + C[C@@H](Oc1cc(-c2cnn(C3CCNCC3)c2)cnc1N)c1c(Cl)ccc(F)c1Cl [Crizotinib] (partner 1 µM)
In short: as §1

[1] = compound: Cn1nnc2c(C(N)=O)ncn2c1=O [Temozolomide] + CC(C)C[C@H](NC(=O)[C@H](Cc1ccccc1)NC(=O)c1cnccn1)B(O)O [Bortezomib] (partner 0.002 µM)
In short: as §1

Temozolomide + AZD7762 = compound: Cn1nnc2c(C(N)=O)ncn2c1=O [Temozolomide] + NC(=O)Nc1cc(-c2cccc(F)c2)sc1C(=O)N[C@H]1CCCNC1 [AZD7762] (partner 0.2 µM)
In short: as §1

| Cell Line | relative viability (AZD5582 + Bortezomib; first compound 0.001581 µM) | relative viability (AZD5582 + Bortezomib; first compound 0.005 µM) | relative viability (AZD5582 + Bortezomib; first compound 0.01581 µM) | relative viability (AZD5582 + Bortezomib; first compound 0.05 µM) | relative viability (AZD5582 + Crizotinib; first compound 0.001581 µM) | relative viability (AZD5582 + Crizotinib; first compound 0.005 µM) | relative viability (AZD5582 + Crizotinib; first compound 0.01581 µM) | relative viability (AZD5582 + Crizotinib; first compound 0.05 µM) | relative viability ([1]; first compound 0.2 µM) | relative viability ([1]; first compound 0.6325 µM) | relative viability ([1]; first compound 2 µM) | relative viability ([1]; first compound 6.325 µM) | relative viability ([1]; first compound 20 µM) | relative viability (Temozolomide + AZD7762; first compound 0.2 µM) | relative viability (Temozolomide + AZD7762; first compound 0.6325 µM) | relative viability (Temozolomide + AZD7762; first compound 2 µM) | relative viability (Temozolomide + AZD7762; first compound 6.325 µM) | relative viability (Temozolomide + AZD7762; first compound 20 µM) |
| --- | --- | --- | --- | --- | --- | --- | --- | --- | --- | --- | --- | --- | --- | --- | --- | --- | --- | --- |
| NCI-H460 | 1.02 | 1.05 | 1.06 | 1.34 | 0.801 | 0.998 | 0.704 | 0.94 | 1.29 | 1.11 | 1.02 | 1.24 | 1.14 | 0.694 | 0.643 | 0.694 | 0.611 | 0.619 |
| NCI-H1792 | 0.92 | 1.02 | 0.892 | 1.22 | 0.903 | 1.01 | 0.908 | 1.08 | 0.969 | 0.988 | 1.01 | 0.641 | 0.953 | 0.9 | 0.775 | 0.711 | 0.532 | 0.676 |
| LU99A | 1.24 | 1.32 | 1.09 | 1.46 | 0.548 | 0.685 | 0.501 | 0.672 | 1.28 | 1.17 | 1.07 | 1.06 | 1.01 | 0.377 | 0.355 | 0.353 | 0.421 | 0.43 |
| NCI-H23 | 0.84 | 1.14 | 0.913 | 0.676 | 0.328 | 0.316 | 0.498 | 0.299 | 1.46 | 1.19 | 0.993 | 0.968 | 0.993 | 0.247 | 0.278 | 0.282 | 0.181 | 0.255 |
| ChaGo-K-1 | 0.988 | 0.985 | 0.93 | 0.982 | 0.988 | 1.1 | 1.13 | 1.23 | 1.17 | 0.955 | 1.21 | 0.967 | 0.985 | 0.939 | 0.902 | 0.922 | 0.858 | 0.904 |
| NCI-H322M | 1.18 | 1.37 | 1.18 | 1.41 | 0.852 | 0.944 | 0.636 | 1.31 | – | 1.25 | 1.19 | 1.2 | 0.962 | 0.558 | 0.559 | 0.545 | 0.547 | 0.455 |
| EMC-BAC-2 | 1.01 | 1.04 | 1.02 | 0.354 | 0.637 | 0.551 | 0.682 | 0.236 | 0.977 | 1.13 | 1.02 | 1.01 | 1.04 | 1.12 | 1.17 | 1.15 | 1.08 | 1.12 |
| NCI-H3122 | 1.03 | 0.954 | 1.07 | 0.729 | 0.264 | 0.305 | 0.298 | 0.247 | 1.01 | 1.1 | 1.04 | 0.937 | 1.04 | 1.02 | 1.05 | 1.01 | 0.922 | 0.934 |
| HARA | 1.09 | 1.11 | 1.06 | 1.07 | 1.01 | 0.894 | 1.04 | 1 | 1.26 | 1.16 | 1.24 | 1.14 | 1.05 | 0.358 | 0.322 | 0.299 | 0.395 | 0.305 |
| NCI-H2347 | 0.73 | 0.949 | 0.693 | 0.929 | 0.657 | 0.601 | 0.509 | 0.701 | 1.34 | 1.05 | 0.995 | 0.836 | 1.07 | 0.572 | 0.743 | 0.757 | 0.792 | 0.706 |
| NCI-H1437 | 0.389 | 0.549 | 0.445 | 0.446 | 0.856 | 0.713 | 0.858 | 0.957 | 0.453 | 0.42 | 0.648 | 0.409 | 0.452 | 1.09 | 1.12 | 1.14 | 1.12 | 1.14 |
| NCI-H647 | 0.878 | 0.907 | 0.997 | 0.871 | 0.809 | 0.732 | 1.02 | 0.327 | 1.21 | 0.902 | 0.836 | 0.792 | 0.283 | 0.674 | 0.549 | 0.392 | 0.205 | 0.145 |
| NCI-H1915 | 0.938 | 0.991 | 0.92 | 0.855 | 0.854 | 0.916 | 0.915 | 0.882 | 0.972 | 0.96 | 0.933 | 0.729 | 0.354 | 0.757 | 0.652 | 0.584 | 0.281 | 0.27 |
| BEN | 0.786 | 0.87 | 0.911 | 0.579 | 0.658 | 0.784 | 0.979 | 0.848 | 0.965 | 0.77 | 0.911 | 0.577 | 0.588 | 0.712 | 0.616 | 0.779 | 0.689 | 0.678 |
| LC-2-ad | 1.05 | 1.14 | 0.938 | 1.04 | 0.457 | 0.454 | 0.384 | 0.391 | 1.17 | 0.984 | 1.02 | 0.945 | 0.945 | 0.842 | 0.85 | 0.873 | 0.837 | 0.675 |
| LXF-289 | 0.985 | 1.03 | 0.987 | 1.05 | 0.75 | 0.788 | 0.788 | 0.725 | 1.01 | 1.03 | 1.05 | 0.928 | 0.934 | 1.12 | 1.08 | 1.08 | 1.06 | 1.07 |
